Data: the NIST ThermoML archive (doi:10.1016/j.jct.2013.05.009)

Legend:
[1] = refractive index (Na D-line) (dimensionless); conditions: 298.15 K; 101.33 kPa; Liquid; Standard Abbe refractometry
[2] = 101 kPa, Liquid; for speed of sound: Sing-around technique in a fixed-path interferometer; for mass density: Vibrating tube method
[3] = xn = mol fraction of the nth substance listed; conditions: 101 kPa, Liquid; for mass density: Vibrating tube method; for speed of sound: fixed-path interferometer

CC(C)CC(C)(C)C [2,2,4-trimethylpentane]
Conditions	refractive index
[1]	1.38901

[2]
Conditions	mass density [kg/m3]	speed of sound [m/s]
298.15 K	687.68	1082.7
308.15 K	679.45	1041.1
318.15 K	671.3	1000.1
328.15 K	663.17	959.4

CC(C)CC(C)(C)C [2,2,4-trimethylpentane] + Cc1ccccc1
[3]
Conditions	mass density, 298.15 K [kg/m3]	mass density, 308.15 K [kg/m3]	mass density, 318.15 K [kg/m3]	mass density, 328.15 K [kg/m3]	speed of sound, 298.15 K [m/s]	speed of sound, 308.15 K [m/s]	speed of sound, 318.15 K [m/s]	speed of sound, 328.15 K [m/s]
x1 = 0.2055	811.87	802.88	793.92	784.96	1235.8	1193.6	1151.9	1110.8
x1 = 0.403	772.32	763.58	754.88	746.18	1184.2	1142.3	1100.9	1060.1
x1 = 0.6062	738.6	730.06	721.58	713.11	1142.4	1100.5	1059.3	1018.7
x1 = 0.8001	711.48	703.11	694.81	686.51	1110	1068.4	1027.2	986.7

CCCCO [butan-1-ol]
Conditions	refractive index
[1]	1.39733

[2]
Conditions	mass density [kg/m3]	speed of sound [m/s]
298.15 K	805.74	1239.9
308.15 K	798.07	1206.6
318.15 K	790.38	1173.4
328.15 K	782.58	1140.4

CCCCO [butan-1-ol] + CC(C)CC(C)(C)C
[3], x2 = 0
Conditions	mass density [kg/m3]	speed of sound [m/s]
298.15 K	805.74	1239.9
308.15 K	798.07	1206.6
318.15 K	790.38	1173.4
328.15 K	782.58	1140.4

Cc1ccccc1 [toluene]
Conditions	refractive index
[1]	1.49393

[2]
Conditions	mass density [kg/m3]	speed of sound [m/s]
298.15 K	862.19	1305.4
308.15 K	852.88	1262.7
318.15 K	843.6	1220.4
328.15 K	834.29	1178.6

Cc1ccccc1 [toluene] + CCCCO
[3], x1 = 1
Conditions	mass density [kg/m3]	speed of sound [m/s]
298.15 K	862.19	1305.4
308.15 K	852.88	1262.7
318.15 K	843.6	1220.4
328.15 K	834.29	1178.6
